Columns and labels:
[1] = tested on: adrenalectomized Sprague Dawley rats; assay: In vivo assay of electrolyte modulation; settings: 30 mg/kg p.o., aldosterone 3 μg/kg s.c., urine collected 5 hours after dose, rat
Experimental: Male Sprague Dawley rats (240-280 g) are adrenalectomized then maintained on 5001 rodent chow and 1% NaCl drinking solution for 6 days after surgery. Animals are then fasted overnight and 1% saline drinking water is replaced with house water ad lib. The morning of the study, fasted animals are randomized to treatment on the basis of fasted body weight. Control animals (e.g. those that receive no aldosterone or test compound) are given 10 mL/kg of test compound vehicle comprising 0.5% CMC/0.25% polysorbate 80/2.7% NaCl by oral gavage, and 1 mL/kg of aldosterone vehicle (0.01% DMSO/water) by subcutaneous injection. Vehicle animals are given the same test compound vehicle by oral gavage and aldosterone 3 μg/kg, s.c. Test substances are suspended in the carboxy methylcellulose/NaCl vehicle. The test compound treatment groups receive test substance suspended in the carboxy methylcellulose/NaCl vehicle and aldosterone 3 μg/kg s.c. Immediately after dosing, animals are placed in metabolic racks with ad lib access to house water. Urine samples are collected 5 hours after dose administration and electrolyte excretion is assayed. Data are presented as log Na/K excretion ratio or % of Na/K ratio with respect to adrenalectomized vehicle treated animals. […]

[2] = tested on: uni-nephrectomized Sprague Dawley rats; assay: In vivo model of aldosterone mediated hypertension; settings: orally once daily 1-30 mg/kg/day x 14 days, rat
Experimental: Male uni-nephrectomized Sprague Dawley rats (240-280 g) are housed individually with ad lib house water and rodent 5001 diet for one week. After acclimation, animals are implanted with Alzet pumps to subcutaneously deliver 0.25 μg/h of aldosterone at 2.5 μl/h for up to 28 days, and maintained on a diet containing 6% NaCl and drinking water containing 0.3% KCl throughout the duration of the study. Radiotelemetry devices are also implanted to monitor arterial blood pressure. For example, signals from each animal are sampled every 10 minutes throughout the study. The mean (±SEM) of all values collected over a twenty four hour period represent the mean daily arterial pressure for each animal.
On the day following pump implantation, test compound in a vehicle comprising 1% medium viscosity sodium carboxy methylcellulose/0.25% polysorbate 80/0.05% Antifoam 1510 ™, or vehicle alone, is then administered by once daily oral gavage (10 mL/kg).

[3] = tested on: uni-nephrectomized Sprague Dawley rats; assay: In vivo model of aldosterone mediated renal disease; settings: 10 mg/kg/day x 28 days, oral gavage, aldosterone infusion, 6% salt diet, rat
Experimental: Male uni-nephrectomized Sprague Dawley rats (240-280 g) are housed individually with ad lib house water and rodent 5001 diet for one week. After acclimation, baseline 24 h urine samples are collected and analyzed for total urine protein and creatinine. Animals are randomized via body weight and baseline urine protein into study groups. Baseline serum is taken by tail-clip and analyzed for blood urea nitrogen (BUN), creatinine, and electrolytes. After baseline samples are taken, all rats with the exception of the control group are maintained on a diet containing 6% salt, and drinking water containing 0.3% KCl throughout the study duration. […] Alza mini-pumps to deliver 2.5 μl/h×28 days of d-aldosterone in 0.01% DMSO at 0.75 μg/h, s.c. are implanted in non-control animals (e.g Test Compound group and Vehicle only group) under isoflourane anesthesia. Test compound, in a vehicle comprising 1% carboxy methylcellulose (CMC)/0.25% polysorbate 80, or vehicle alone, is then administered by once daily oral gavage (10 mL/kg) beginning the day after aldosterone implantation. Repeat urine samples are collected after 2 and 4 weeks of compound or vehicle alone administration and analyzed for total urine protein and creatinine. At study termination, pharmacokinetic samples are obtained at 8 timepoints (0.5, 1, 2, 3, 6, 8, 12 and 24 h). […]

- increase of urinary Na/K excretion ratio compared to vehicle treated animals [1]: about 30%
SMILES: O=c1[nH]c2cc(/C=C3\c4ccccc4COc4cc(F)ccc43)ccc2n1[C@@H]1C[C@@H]2COCCN2C1 [Compound (I), 5-((E)-(3-fluorodibenzo[b,e]oxepin-11(6H)-ylidene)methyl)-1-((7R,8aR)-hexahydro-1H-pyrrolo[2,1-c][1,4]oxazin-7-yl)-1H-benzo[d]imidazol-2(3H)-one]
- effect on the hypertensive effects of aldosterone in the presence of salt compared to vehicle [2]: dose dependently reduced the hypertensive effects of aldosterone
- reduction of urinary protein excretion compared to vehicle treated animals [3]: about 60%

Reference: US8658638B2, “Mineralocorticoid receptor antagonist and methods of use” (priority 2009, dated 2014)
